Values joined by “and” are separate entries in the source; they are usually repeats but may differ in a detail not shown here. Equal values may be shown once. Inconclusive results are not listed.

This passage reports T/C results from PubChem BioAssay AID270 (DTP/NCI, 2004).

The test system of the experiment is BDF1 mice, s.c. Lewis lung carcinoma, T/C %. The experiment can be described thus: NCI In Vivo Anticancer Drug Screen. Data for tumor model Lewis Lung Carcinoma (subcutaneous) in B6D2F1 (BDF1) mice. The procedure, abridged:
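Antitumor effect in vivo is scored from survival or tumor burden, reported as treated relative to vehicle controls.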

[1] abbreviates: endpoint: median survival time, dose: 2.0 mg/kg/injection, schedule: Q01DX009 (ip), vehicle: saline, higher = longer survival.
Setting [2] is: endpoint: mean tumor weight, dose: 25.0 mg/kg/injection, schedule: Q01DX011 (ip), vehicle: saline, higher = larger tumour.
Setting [3] is: endpoint: mean tumor weight, dose: 50.0 mg/kg/injection, schedule: Q01DX011 (ip), vehicle: saline, higher = larger tumour.
The mark [4] stands for this setting: endpoint: mean tumor weight, dose: 100.0 mg/kg/injection, schedule: Q01DX011 (ip), vehicle: saline, higher = larger tumour.
[5] abbreviates: endpoint: mean tumor weight, dose: 50.0 mg/kg/injection, schedule: Q01DX011 (sc), vehicle: steriod suspending solution, higher = larger tumour.
[6] abbreviates: endpoint: mean tumor weight, dose: 100.0 mg/kg/injection, schedule: Q01DX011 (sc), vehicle: steriod suspending solution, higher = larger tumour.
[7] abbreviates: endpoint: median survival time, dose: 100.0 mg/kg/injection, schedule: Q01DX009 (ip), vehicle: Klucel (hydroxypropylcellulose) (HPC), higher = longer survival.
[8] abbreviates: endpoint: median survival time, dose: 200.0 mg/kg/injection, schedule: Q01DX009 (ip), vehicle: Klucel (hydroxypropylcellulose) (HPC), higher = longer survival.

Regarding `Nc1ccc2nc3ccc(N)cc3[n+](-c3ccccc3)c2c1`, under setting [1], the T/C is 88 % of control.

On to `C/C(=N\N=C(/C)c1ccc(-c2ccccc2)cc1)c1ccc(-c2ccccc2)cc1`, for which the T/C was 84 % of control under setting [2]; 85 % of control under setting [3]; 76 % of control under setting [4]; 46 % of control (endpoint: mean tumor weight, dose: 200.0 mg/kg/injection, schedule: Q01DX011 (ip), vehicle: saline, higher = larger tumour).

On to `C[C@]12C=CC(=O)C=C1CC[C@@H]1[C@@H]2[C@@H](O)C[C@@]2(C)[C@H]1CC[C@]2(O)C(=O)CO`, for which the T/C is 81 % of control (endpoint: mean tumor weight, dose: 12.5 mg/kg/injection, schedule: Q01DX011 (sc), vehicle: steriod suspending solution, higher = larger tumour); 72 % of control (endpoint: mean tumor weight, dose: 25.0 mg/kg/injection, schedule: Q01DX011 (sc), vehicle: steriod suspending solution, higher = larger tumour); 51 % of control under setting [5]; 14 % of control under setting [6]; 99 % of control (endpoint: median survival time, dose: 40.0 mg/kg/injection, schedule: Q02DX009 (ip), vehicle: Klucel (hydroxypropylcellulose) (HPC), higher = longer survival); 93 % of control (endpoint: median survival time, dose: 80.0 mg/kg/injection, schedule: Q02DX009 (ip), vehicle: Klucel (hydroxypropylcellulose) (HPC), higher = longer survival). Further, the T/C (endpoint: median survival time, dose: 320.0 mg/kg/injection, schedule: Q02DX009 (ip), vehicle: Klucel (hydroxypropylcellulose) (HPC), higher = longer survival) is 86 % of control.

Regarding `CC[CH2][Pb]([Cl])([CH2]CC)[CH2]CC`, the T/C (endpoint: median survival time, dose: 0.01 mg/kg/injection, schedule: Q01DX009 (ip), vehicle: DMSO, higher = longer survival) is 101 % of control; the T/C (endpoint: median survival time, dose: 0.02 mg/kg/injection, schedule: Q01DX009 (ip), vehicle: DMSO, higher = longer survival) is 93 % of control; the T/C (endpoint: median survival time, dose: 0.04 mg/kg/injection, schedule: Q01DX009 (ip), vehicle: DMSO, higher = longer survival) is 98 % of control; the T/C (endpoint: median survival time, dose: 0.04 mg/kg/injection, schedule: Q01DX009 (ip), vehicle: Klucel (hydroxypropylcellulose) (HPC), higher = longer survival) was 94 % of control; the T/C (endpoint: median survival time, dose: 0.08 mg/kg/injection, schedule: Q01DX009 (ip), vehicle: DMSO, higher = longer survival) is 107 % of control; the T/C (endpoint: median survival time, dose: 0.09 mg/kg/injection, schedule: Q01DX009 (ip), vehicle: Klucel (hydroxypropylcellulose) (HPC), higher = longer survival) is 106 % of control. Also, the T/C is 100 % of control (endpoint: median survival time, dose: 0.18 mg/kg/injection, schedule: Q01DX009 (ip), vehicle: Klucel (hydroxypropylcellulose) (HPC), higher = longer survival); 108 % of control (endpoint: median survival time, dose: 0.37 mg/kg/injection, schedule: Q01DX009 (ip), vehicle: DMSO, higher = longer survival); 104 % of control (endpoint: median survival time, dose: 0.37 mg/kg/injection, schedule: Q01DX009 (ip), vehicle: Klucel (hydroxypropylcellulose) (HPC), higher = longer survival).

Take `CC(=O)O[C@]1(C(C)=O)CC[C@H]2[C@@H]3C[C@H](C)C4=CC(=O)CC[C@]4(C)[C@H]3CC[C@@]21C`: the T/C was 203 % of control (endpoint: median survival time, dose: 50.0 mg/kg/injection, schedule: Q01DX009 (ip), vehicle: Klucel (hydroxypropylcellulose) (HPC), higher = longer survival); 204 % of control under setting [7]; 119 % of control under setting [8]; 203 % of control (endpoint: median survival time, dose: 400.0 mg/kg/injection, schedule: Q01DX009 (ip), vehicle: Klucel (hydroxypropylcellulose) (HPC), higher = longer survival).

Consider `CCCCCCCCCCCC(c1ccccc1)[N+](C)(C)C` (configuration not stated), for which the T/C was 102 % of control (endpoint: median survival time, dose: 0.5 mg/kg/injection, schedule: Q01DX009 (ip), vehicle: saline, higher = longer survival); 96 % of control (endpoint: median survival time, dose: 1.0 mg/kg/injection, schedule: Q01DX009 (ip), vehicle: saline, higher = longer survival); 93 % of control under setting [1].

For `CC(=O)c1ccc(-c2ccccc2)cc1`, the T/C runs as follows: (endpoint: mean tumor weight, dose: 125.0 mg/kg/injection, schedule: Q01DX011 (ip), vehicle: other, higher = larger tumour) 57 % of control; (endpoint: mean tumor weight, dose: 222.0 mg/kg/injection, schedule: Q01DX011 (ip), vehicle: other, higher = larger tumour) 174 % of control; (endpoint: mean tumor weight, dose: 250.0 mg/kg/injection, schedule: Q01DX011 (ip), vehicle: other, higher = larger tumour) 73 % of control; (endpoint: mean tumor weight, dose: 333.0 mg/kg/injection, schedule: Q01DX011 (ip), vehicle: other, higher = larger tumour) 118 % of control; (endpoint: mean tumor weight, dose: 500.0 mg/kg/injection, schedule: Q01DX011 (ip), vehicle: other, higher = larger tumour) 86 % of control.

In the case of `CC(=O)NNC(=O)c1ccccn1`, the T/C is 112 % of control (endpoint: median survival time, dose: 25.0 mg/kg/injection, schedule: Q01DX009 (ip), vehicle: Klucel (hydroxypropylcellulose) (HPC), higher = longer survival); 102 % of control under setting [7]; 115 % of control under setting [8].

`CC(C)CCC[C@@H](C)[C@H]1CC[C@H]2[C@@H]3CC=C4C[C@@H](OC(=O)Cc5ccc(N(CCCl)CCCl)cc5)CC[C@]4(C)[C@H]3CC[C@]12C`: the T/C by setting is: under setting [5], 84 % of control; under setting [6], 76 % of control; (endpoint: mean tumor weight, dose: 200.0 mg/kg/injection, schedule: Q01DX011 (sc), vehicle: steriod suspending solution, higher = larger tumour) 78 % of control; (endpoint: mean tumor weight, dose: 400.0 mg/kg/injection, schedule: Q01DX011 (sc), vehicle: steriod suspending solution, higher = larger tumour) 57 % of control.

Consider `C/C=C1\CNC2Cc3c([nH]c4ccccc34)C(=O)CC1C2C(=O)OC` (configuration not stated), for which the T/C reads like this: under setting [2], 88 % of control; under setting [3], 97 % of control; under setting [4], 84 % of control.

With `Cc1ccc(NC(=O)N(CCCl)N=O)cc1C`, the T/C (endpoint: median survival time, dose: 3.12 mg/kg/injection, schedule: Q01DX009 (ip), vehicle: Klucel (hydroxypropylcellulose) (HPC), higher = longer survival) is 112 % of control and the T/C (endpoint: median survival time, dose: 6.25 mg/kg/injection, schedule: Q01DX009 (ip), vehicle: Klucel (hydroxypropylcellulose) (HPC), higher = longer survival) was 87 % of control.

`Cc1cccc(NC(=O)N(CCCl)N=O)c1`: the T/C by setting is: (endpoint: median survival time, dose: 0.38 mg/kg/injection, schedule: Q01DX009 (ip), vehicle: saline with Tween-80, higher = longer survival) 96 % of control; (endpoint: median survival time, dose: 0.75 mg/kg/injection, schedule: Q01DX009 (ip), vehicle: saline with Tween-80, higher = longer survival) 102 % of control; (endpoint: median survival time, dose: 3.0 mg/kg/injection, schedule: Q01DX009 (ip), vehicle: saline with Tween-80, higher = longer survival) 92 % of control.

With `CC1CCCC(NC(=O)N(CCCl)N=O)C1` (configuration not stated), the T/C was 110 % of control (endpoint: median survival time, dose: 20.0 mg/kg/injection, schedule: Q01DX001 (ip), vehicle: gum acacia, higher = longer survival); 110 % of control (endpoint: median survival time, dose: 30.0 mg/kg/injection, schedule: Q01DX001 (ip), vehicle: gum acacia, higher = longer survival); 92 % of control (endpoint: median survival time, dose: 43.0 mg/kg/injection, schedule: Q01DX001 (ip), vehicle: gum acacia, higher = longer survival); 90 % of control (endpoint: median survival time, dose: 64.0 mg/kg/injection, schedule: Q01DX001 (ip), vehicle: gum acacia, higher = longer survival); 155 % of control (endpoint: median survival time, dose: 96.0 mg/kg/injection, schedule: Q01DX001 (ip), vehicle: gum acacia, higher = longer survival).

Turning to `CCOCCCN`, the T/C reads like this: (endpoint: mean tumor weight, dose: 44.0 mg/kg/injection, schedule: Q01DX011 (ip), vehicle: saline, higher = larger tumour) 106 % of control; (endpoint: mean tumor weight, dose: 66.0 mg/kg/injection, schedule: Q01DX011 (ip), vehicle: saline, higher = larger tumour) 97 % of control; under setting [4], 123 % of control; (endpoint: mean tumor weight, dose: 148.0 mg/kg/injection, schedule: Q01DX011 (ip), vehicle: saline, higher = larger tumour) 101 % of control.

Regarding `COc1ccc(-c2cc(=O)c3c(O)cc(OC)cc3o2)cc1`, the T/C (endpoint: mean tumor weight, dose: 220.0 mg/kg/injection, schedule: Q01DX011 (ip), vehicle: saline, higher = larger tumour) is 84 % of control; the T/C (endpoint: mean tumor weight, dose: 330.0 mg/kg/injection, schedule: Q01DX011 (ip), vehicle: saline, higher = larger tumour) was 71 % of control and 89 % of control; the T/C (endpoint: mean tumor weight, dose: 500.0 mg/kg/injection, schedule: Q01DX011 (ip), vehicle: saline, higher = larger tumour) is 48 % of control and 60 % of control.

As for `[Cl][Hg][c]1ccc2ccccc2c1`, the T/C is 89 % of control (endpoint: median survival time, dose: 3.0 mg/kg/injection, schedule: Q01DX009 (ip), vehicle: gum acacia, higher = longer survival) and 108 % of control (endpoint: median survival time, dose: 6.0 mg/kg/injection, schedule: Q01DX009 (ip), vehicle: gum acacia, higher = longer survival).
